Assay results: patent US9598459B2, “Pharmaceutical compositions and methods” (priority 2015, dated 2017)
Converted amounts (≈) assume the structure as drawn. “And” between values parts separate entries of the source, which are not always exact repeats. Identical values can stand only once. Counter-ions that a name gives are not always drawn. Like-named read-outs stand apart in the source and are kept apart here.

Experiments:
Vero 76 = details: African green monkey
[1] = tested on: Enterovirus 71 Tainan/4643/98; experiment: microbe, parasite or virus in culture; type: cell-based; details: Enterovirus A, Vero 76
in vitro [2] = details: African green monkey
Poliovirus type 3 WM-3 = experiment: microbe, parasite or virus in culture; type: cell-based; details: Enterovirus C, Vero 76
in vitro [3] = details: human
HIV-1 strain LAI = experiment: HIV-1 replication reverse transcriptase (RT) assay in PBMC; type: cell-based, human immunodeficiency virus type 1; details: for EC90: Human immunodeficiency virus 1, read-out: Anti-HIV-1LAI activity EC90
in vitro [4] = details: African green monkey; remark: listed apart in the source
Cytotoxicity on CCRF-CEM = details: human, CCRF-CEM cells (T-lymphoblastic acute T cell leukemia), Cytotoxicity CC50, CCRF-CEM
Vero = details: African green monkey
PBMC = details: human
CCRF-CEM = experiment: Cytotoxicity on CCRF-CEM; details: read-out: Cytotoxicity CC50, CCRF-CEM
[5] = tested on: Herpes simplex virus type 1 E-377; experiment: Herpes simplex virus type 1 antiviral screen in primary HFF-1 (CellTiter-Glo); type: cell-based; details: Human alphaherpesvirus 1; E-377, Primary HFF-1, CellTiter-Glo
[6] = Cytotoxicity on primary human foreskin fibroblasts; details: human
in vitro [7] = details: human, CC50
Dengue 2 = experiment: Dengue virus antiviral screen in HUH7; type: cell-based, dengue virus type 2; details: Dengue virus, Huh-7, New Guinea C, read-out: EC50
Zika virus MR766 = experiment: Zika virus antiviral screen in HuH-7; type: cell-based; details: for EC50: Zika virus, read-out: EC50
[8] = tested on: Norwalk virus (replicon) GT1; experiment: Norwalk virus replicon (GT1) in HG23, RNA hybridization; type: cell-based, Norwalk virus (human norovirus); details: Norovirus/1968/US, HG23, Replicon
[9] = tested on: cellular ribosomal RNA (rRNA) synthesis; experiment: Cellular ribosomal RNA synthesis in HCV replicon cells (TaqMan RT-qPCR); type: cell-based; details: Fixed: 10 μM, Clone B genotype 1a, HuH-7, Replicon
[10] = tested on: Hepatitis C virus (replicon) clone B (genotype 1a); experiment: HCV genotype 1a HuH-7 clone B subgenomic replicon RNA replication; type: cell-based, human hepatitis C virus; details: Fixed: 10 μM, Clone B genotype 1a, HuH-7, Replicon
[11] = tested on: Hepatitis B virus (HBV) ayw; experiment: Hepatitis B virus replication in HepAD38 (32P dot blot); type: cell-based; details: Hepatitis B virus
[12] = tested on: Vaccinia virus Copenhagen; experiment: microbe, parasite or virus in culture; type: cell-based; details: Orthopoxvirus vaccinia, HFF-1
[13] = tested on: Enterovirus D68 US/KY/14-18953; experiment: Enterovirus D68 antiviral screen in RD; type: cell-based; details: Enterovirus D, US/KY/14-18953, RD, read-out: EC50
[14] = Cytotoxicity on RD host cells; type: cell-based; details: human, RD cells, Enterovirus D68 screen, read-out: CC50
[15] = tested on: Respiratory syncytial type A A2 (VR-1540); experiment: Respiratory syncytial virus type A antiviral screen in MA-104; type: cell-based; details: human respiratory syncytial virus, MA104, A2 (VR-1540), read-out: EC50
Rift Valley fever MP-12 = experiment: microbe, parasite or virus in culture; type: cell-based, Rift Valley fever virus
[16] = tested on: swine-origin pandemic influenza A (H1N1) virus; experiment: microbe, parasite or virus in culture; type: cell-based
Tacaribe TRVL11573 = experiment: microbe, parasite or virus in culture; type: cell-based, Tacaribe virus
[17] = target: cytosolic progesterone receptors (PR) (Homo sapiens, UniProt P06401); details: Peeters et al., 2008; cited from earlier work
cytosolic GRs = target: T1, cytosolic GRs (Homo sapiens, UniProt P04150); details: Peeters et al., 2008; cited from earlier work
T1 sequence (P04150 1-777): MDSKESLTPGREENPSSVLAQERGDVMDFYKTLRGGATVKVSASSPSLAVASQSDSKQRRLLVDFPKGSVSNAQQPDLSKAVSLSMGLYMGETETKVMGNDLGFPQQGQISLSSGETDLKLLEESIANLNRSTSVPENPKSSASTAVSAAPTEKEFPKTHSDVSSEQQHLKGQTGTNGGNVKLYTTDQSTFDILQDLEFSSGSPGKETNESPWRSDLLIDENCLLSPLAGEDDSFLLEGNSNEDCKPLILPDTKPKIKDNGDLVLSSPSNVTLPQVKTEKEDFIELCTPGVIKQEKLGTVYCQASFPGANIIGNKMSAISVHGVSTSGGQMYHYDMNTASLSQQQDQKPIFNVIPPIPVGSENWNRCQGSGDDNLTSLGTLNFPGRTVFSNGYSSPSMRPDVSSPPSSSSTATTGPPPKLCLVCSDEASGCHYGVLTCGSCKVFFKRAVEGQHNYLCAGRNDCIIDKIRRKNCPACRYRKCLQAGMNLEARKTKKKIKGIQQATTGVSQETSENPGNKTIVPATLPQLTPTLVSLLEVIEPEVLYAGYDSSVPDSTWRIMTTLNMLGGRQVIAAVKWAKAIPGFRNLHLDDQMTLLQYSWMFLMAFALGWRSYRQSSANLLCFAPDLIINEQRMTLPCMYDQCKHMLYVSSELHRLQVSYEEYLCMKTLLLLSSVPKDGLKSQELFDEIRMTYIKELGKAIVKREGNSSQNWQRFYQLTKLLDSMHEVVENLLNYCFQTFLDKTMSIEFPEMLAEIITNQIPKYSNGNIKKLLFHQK

[18] = cited from earlier work
[19] = rats, twice daily 1-2 mg kg−1 po; cited from earlier work
[20] = Phosphatidylcholine binding (thin-layer chromatographic run); details: words

Chain of cytosolic progesterone receptors (PR) (P06401 whole entry): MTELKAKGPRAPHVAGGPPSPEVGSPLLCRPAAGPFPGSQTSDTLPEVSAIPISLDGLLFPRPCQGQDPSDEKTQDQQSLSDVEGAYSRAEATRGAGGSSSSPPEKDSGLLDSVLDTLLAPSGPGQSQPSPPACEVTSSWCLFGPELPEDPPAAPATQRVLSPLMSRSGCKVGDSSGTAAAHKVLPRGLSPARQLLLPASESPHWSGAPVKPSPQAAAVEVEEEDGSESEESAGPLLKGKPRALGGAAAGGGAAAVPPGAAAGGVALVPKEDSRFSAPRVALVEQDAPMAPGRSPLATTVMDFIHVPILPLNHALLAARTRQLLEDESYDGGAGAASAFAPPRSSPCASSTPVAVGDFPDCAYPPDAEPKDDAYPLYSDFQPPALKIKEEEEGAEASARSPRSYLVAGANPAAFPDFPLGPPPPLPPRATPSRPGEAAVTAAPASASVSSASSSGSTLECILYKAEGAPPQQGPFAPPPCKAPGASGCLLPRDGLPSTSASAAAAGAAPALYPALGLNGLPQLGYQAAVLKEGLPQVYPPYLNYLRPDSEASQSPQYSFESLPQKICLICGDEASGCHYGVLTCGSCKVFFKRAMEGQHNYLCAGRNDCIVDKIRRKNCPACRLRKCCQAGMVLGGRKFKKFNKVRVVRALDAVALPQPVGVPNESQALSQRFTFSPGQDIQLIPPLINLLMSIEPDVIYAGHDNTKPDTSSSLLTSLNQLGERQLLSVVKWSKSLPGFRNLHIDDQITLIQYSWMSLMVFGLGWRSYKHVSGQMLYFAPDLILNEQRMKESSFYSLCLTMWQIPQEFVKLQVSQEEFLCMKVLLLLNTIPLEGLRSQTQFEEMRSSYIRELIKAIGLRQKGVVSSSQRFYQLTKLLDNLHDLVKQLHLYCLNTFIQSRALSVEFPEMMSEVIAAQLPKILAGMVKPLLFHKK

Compound `CCOC(=O)c1ccc(OCCC2CCN(c3ccc(C)nn3)CC2)cc1` [pirodavir, reference compound] has a CC50 (Vero 76) of 7.8 µg/mL (≈ 21.1 µM), an EC50 [1] of 97 nM and an EC90 [1] of 0.23 µg/mL (≈ 0.623 µM). The CC50 (in vitro [2]) was > 27 µM and > 10 µg/mL, the EC50 (Poliovirus type 3 WM-3) was 970 nM and the EC90 (Poliovirus type 3 WM-3) was 0.14 µg/mL (≈ 0.379 µM).

Work on `Nc1ccn([C@@H]2O[C@H](CO)[C@@H](O)[C@H]2O)c(=O)[n+]1[C-2][n+]1c(N)ccn([C@@H]2O[C@H](CO)[C@@H](O)[C@H]2O)c1=O` [TCY-1, Bis(cytidin-3-ium-3-yl)methanediide monohydrochloride×1.25H2O] yielded a CC50 (in vitro [3]) greater than 100 µM, an EC50 (HIV-1 strain LAI; Human immunodeficiency virus 1, PBMC, in PBMC, read-out: Anti-HIV-1LAI activity EC50) of 290 nM and an EC90 (HIV-1 strain LAI; in PBMC) of 1000 nM. For the same compound, the CC50 (in vitro [4]; Cytotoxicity CC50) was greater than 100 µM and the CC50 (Cytotoxicity on CCRF-CEM) was greater than 100 µM.

With `Cc1cn([C@H]2C[C@H](N=[N+]=[N-])[C@@H](CO)O2)c(=O)[nH]c1=O` [AZT, 3′-azido-3′-deoxythymidine, reference compound] the CC50 (in vitro [3]) was greater than 100 µM, the CC50 (Vero) was 39.5 µM and the EC50 (HIV-1 strain LAI; Human immunodeficiency virus 1, PBMC, LAI, PBMC, RT 3H-dTTP, read-out: EC50) was 0.79 nM. It also gave an EC90 (HIV-1 strain LAI; in PBMC) of 29.9 nM, an EC50 (HIV-1 strain LAI; in PBMC, listed as zidovudine (AZT), read-out: Anti-HIV-1LAI activity EC50) of 4.4 ± 3.9 nM and a CC50 (PBMC) greater than 100 µM. It also gave a CC50 (in vitro [4]; Cytotoxicity CC50) of 56 µM, a CC50 (CCRF-CEM) of 14.3 µM and a CC50 (CCRF-CEM; listed as zidovudine (AZT)) of 56.1 µM.

In the case of `Nc1nc2c(ncn2COCCO)c(=O)[nH]1` [Aciclovir], the EC50 [5] is reported as 3.85 µM and the CC50 ([6]; primary human foreskin fibroblasts (HFF-1), CC50, Herpes simplex virus type 1 screen, Primary HFF-1, CellTiter-Glo) is reported as greater than 150 µM.

For `O=c1cnn([C@@H]2O[C@H](CO)[C@@H](O)[C@H]2O)c(=O)[nH]1` [6-azauridine, reference compound], the CC50 (in vitro [7]) was greater than 408 µM, the EC50 (Dengue 2; HuH-7, Neutral red) was 4.6 µg/mL (≈ 18.8 µM) and the EC50 (Dengue 2; HuH-7, Visual) was 2.8 µg/mL (≈ 11.4 µM). For the same compound, the EC90 (Zika virus MR766; Huh-7, Visual (Virus yield reduction), Zika virus MR766, HUH7, Example 9, unit from Conc. Range, read-out: EC90) was 0.89 µg/mL (≈ 3.63 µM), the EC50 (Zika virus MR766; Huh-7, MR766, HuH-7, Neutral red) was 11 µg/mL and the EC50 (Zika virus MR766; Huh-7, MR766, HuH-7, Visual) was 3.2 µg/mL. For the same compound, the EC50 (Zika virus MR766; Huh-7, Neutral Red (Cytopathic effect/Toxicity), Zika virus MR766, HUH7, Example 9) was 4.1 µg/mL and the EC50 (Zika virus MR766; Huh-7, Zika virus MR766, HuH-7, Table 10) was 13.1 µM.

For `C[C@@]1(O)[C@H](O)[C@@H](CO)O[C@H]1n1ccc(N)nc1=O` [RS-446], the EC50 [8] was 6.9 µM, the “% Inhib rRNA(tox)” value [9] was 31.09% and the “% Inhib replication” value [10] was 98.08%.

Work on `Nc1ccn([C@@H]2CS[C@H](CO)O2)c(=O)n1` [Lamivudine] yielded an EC50 [11] of 30 nM.

`Nc1ccn(C[C@@H](CO)OCP(=O)(O)O)c(=O)n1` [Cidofovir] showed an EC50 [12] of 7.34 µM and a CC50 ([6]; primary HFF-1 human foreskin fibroblasts, CC50) greater than 150 µM.

Work on `CC(C)S(=O)(=O)n1c(N)nc2ccc(/C(=N/O)c3ccccc3)cc21` [Enviroxime] yielded an EC50 ([13]; Neutral red) of 0.1 µg/mL (≈ 0.279 µM), an EC50 ([13]; Visual) of less than 0.1 µg/mL and a CC50 ([14]; Neutral red) of 25 µg/mL (≈ 69.7 µM). For the same compound, the CC50 ([14]; Visual) was 32 µg/mL (≈ 89.3 µM).

`NC(=O)c1ncn([C@@H]2O[C@H](CO)[C@@H](O)[C@H]2O)n1` [Ribavirin] showed an EC50 ([15]; MA-104, Neutral red) of 6.8 µg/mL (≈ 27.8 µM), an EC50 ([15]; MA-104, Visual) of 6.7 µg/mL (≈ 27.4 µM) and a CC50 (in vitro [4]; CC50) greater than 1000 µg/mL. For the same compound, the EC50 (Rift Valley fever MP-12) was 8.3 µg/mL (≈ 34 µM), the EC50 (Rift Valley fever MP-12; Rift Valley fever virus, Vero 76) was 9.7 µg/mL (≈ 39.7 µM) and the EC50 [16] was 13 µg/mL (≈ 53.2 µM). The EC50 ([16]; Influenza A virus, H1N1, MDCK) was 14 µg/mL (≈ 57.3 µM), the EC50 (Tacaribe TRVL11573) was 7 µg/mL (≈ 28.7 µM) and the EC50 (Tacaribe TRVL11573; Mammarenavirus tacaribeense, Vero) was 7.9 µg/mL (≈ 32.3 µM). The CC50 (in vitro [2]) was greater than 1000 µg/mL.

In the case of `CC#C[C@]1(O)CC[C@H]2[C@@H]3CCC4=CC(=O)CCC4=C3[C@@H](c3ccc(N(C)C)cc3)C[C@@]21C` [mifepristone, reference compound], the “value for the cytosolic progesterone receptors (PR)” value [17] is listed as 36%, the “bound to cytosolic GRs, value” (cytosolic GRs) is listed as 193% and the responding ([18]; glucose intolerant group) is listed as 60%. For the same compound, the responding ([18]; hypertensive group) was 43% and the embryos lost [19] was roughly 100%.

For `CC#C[C@]1(O)CC[C@H]2[C@@H]3CCC4=C/C(=N/NC(N)=S)CCC4=C3[C@@H](c3ccc4c(c3)OCO4)C[C@@]21C` [(E)-ORG34517 thiosemicarbazone], the “binding to PC” value [20] was “Weak (stereospecific!) binding to PC”.
